From patent publication US8263065B2, “Tumor suppression using human placental perfusate and human placenta-derived intermediate natural killer cells” (Anthrogenesis Corporation, priority 2007, dated 2012)

How the values were obtained:
cultured PINK cells = test: qRT-PCR gene expression in lenalidomide- or pomalidomide-treated cultured PINK cells; format: cell-based, human; settings: treated vs untreated cultured PINK cells
Text: RNA isolation and purification.
Quantitative real-time (qRT-PCR) analysis.

[1] = cited from earlier work

Nc1cccc2c1C(=O)N(C1CCC(=O)NC1=O)C2=O (racemic) [pomalidomide, 4-(Amino)-2-(2,6-dioxo(3-piperidyl))-isoindoline-1,3-dione]
Fold change of gene expression, LTA (cultured PINK cells): 2.68 fold

Nc1cccc2c1CN(C1CCC(=O)NC1=O)C2=O (stereo not shown) [Form B, 3-(4-amino-1-oxo-1,3 dihydro-isoindol-2-yl)-piperidene-2,6-dione]
stability in aqueous solvent systems ([1]; aqueous solvent systems): converts to Form E in aqueous solvent systems

Nc1cccc2c1CN(C1CCC(=O)NC1=O)C2=O (stereo not shown) [Form C, 3-(4-amino-1-oxo-1,3 dihydro-isoindol-2-yl)-piperidene-2,6-dione]
stability at higher relative humidities [1]: can convert to Form B

Nc1cccc2c1CN(C1CCC(=O)NC1=O)C2=O (stereo not shown) [Form D, 3-(4-amino-1-oxo-1,3 dihydro-isoindol-2-yl)-piperidene-2,6-dione]
stability at higher relative humidities [1]: will typically convert to Form B
